From US8945359B2, “Flavin-binding glucose dehydrogenase” (Ikeda Food Research Co., Ltd., priority 2011, dated 2015)

What was measured:
[1] = tested on: Sclerotinia sclerotiorum NBRC103652 flavin-binding glucose dehydrogenase ScGLD (C), purified, wild type; assay: Km value to D-glucose (Hanes-Woolf plot), ScGLD; type: biochemical; details: D-glucose varied, DCIP/1-m-PMS, pH 6.0, 37° C.
Procedure: After the column was washed with the buffer solution C2, a protein was eluted with linear gradient of a buffer solution D3 (500 mM potassium phosphate buffer solution, pH 7.0) in the buffer solution C2.

[2] = tested on: Botrytis fabae NBRC7171 flavin-binding glucose dehydrogenase BoGLD (D), purified, wild type; details: read-out: Km value, D-glucose varied, Hanes-Woolf plot, DCIP/1-m-PMS, pH 6.0, 37° C.
Text: The transmitted active fraction was combined with the active fraction eluted after adsorbed and these fractions were concentrated and dialyzed against the buffer solution C3.

[3] = tested on: Ovulinia azaleae NBRC6610 flavin-binding glucose dehydrogenase OvGLD (B), purified, wild type, SEQ ID NO: 6 (without signal sequence SEQ ID NO: 14); details: read-out: Km value, D-glucose varied, Hanes-Woolf plot, DCIP/1-m-PMS, pH 6.0, 37° C.
Procedure: (§1) Each solution was mixed according to the following procedures to measure the absorbance, thereby examining GLD activity.
(§2) Then, 0.05 mL of an enzyme sample was added to the mixture to start a reaction. The amount (ΔA600) of reduction in light absorbance per minute at 600 nm along with the progress of the enzymatic reaction was measured for 5 minutes from the start of the reaction to calculate GLD activity from the straight line part according to the equation 1. At this time, in the measurement of GLD activity, the amount of an enzyme reducing 1 μmol of DCIP at 37° C. and a pH of 6.0 for one minute was defined as 1 U.
(§3) In the above formula, 3.0 represents the amount (mL) of reaction reagent+oxygen solution, 10.8 represents the molar absorption coefficient (mM^−1 cm^−1) of DCIP at a pH of 6.0, 1.0 represents the optical path length (cm) of a cell, 0.05 represents the amount (mL) of the oxygen solution, ΔA600 blank represents a reduction in the amount of light absorbance per minute at 600 nm when the solution used to dilute the enzyme is added in place of the enzyme solution to start a reaction, and df represents a dilution ratio.

[4] = tested on: Ciborinia camelliae NBRC103663 flavin-binding glucose dehydrogenase CiGLD (F), purified from A. oryzae NS4 with CiGLD-Atsig modified gene, SEQ ID NO: …; details: read-out: Km value, D-glucose varied, Hanes-Woolf plot, DCIP/1-m-PMS, pH 6.0, 37° C.
Procedure: as §1, §2, §3
Among the eluted protein, an active fraction was concentrated and desalted to obtain a purified enzyme of GLD derived from the genus Ciborinia substituted with water.

OC[C@H]1OC(O)[C@H](O)[C@@H](O)[C@@H]1O (stereo partly drawn) [D-glucose]
Km [1]: 16.7 mM | Km [2]: 35 mM | Km [3]: 22.8 mM | Km [4]: 5.44 mM
